We go through 1 molecule from patent US20150254400A1, “GROUPING FOR C[…] CANCER” (AGENCY FOR SCIENCE, TECHNOLOGY AND RESEARCH, priority 2012, published 2015).

Entries after “also recorded” stand apart in the source; their conditions may differ.

In series [1] the test system is gastric adenocarcinoma. Put plainly: Patient survival, surgery plus adjuvant 5-FU based therapy versus surgery alone (Kaplan-Meier, Cox regression). It counts as in vivo, human. As to conditions: for HR (95% CI): Multivariate Cox (treatment + stage). As to the method: A study was done to determine whether there was a difference in survival among the three subtypes. In this study, cancer-specific death was considered as an event unless stated otherwise.
Data from 188 patients in the SG201 Singapore cohort for which survival information was available was analyzed.
Many of the patients in the Singapore cohort were treated with 5-FU. To investigate the effect of 5-FU treatment on patient survival, the survival of Singapore and Australian patients treated with surgery alone were compared to that of patients treated by surgery and adjuvant 5-FU based therapy.
The clinical decision on administration of 5-FU was based on multiple factors, including the patient's general health, risk of relapse (estimated largely by disease stage), treatment-related toxicities, and patient preference.
FIGS. 8A to F show Kaplan-Meier plots for surgery plus 5-FU versus surgery alone for each of the three subtypes.

Series [2] has as its system NCI-60 cell lines. Put plainly: 5-FU sensitivity of NCI-60 cell lines classified into the three subtypes by GCPred. It counts as cell-based. As to conditions: metabolic versus invasive subtype NCI-60 cells, Wilcoxon rank sum test p=0.036. The text has this:
In addition, GCPred was used to classify the NCI-60 cell lines into the three subtypes.

Series [3] deals with gastric cancer cell lines. Put plainly: 5-FU sensitivity in vitro of gastric cancer cell lines assigned to the three subtypes by GCPred. The class given is cell-based. The text has this:
It was then examined whether there are differences in 5-FU sensitivity, in vitro, between gastric cancer cell lines assigned to the three subtypes.
GCPred was first used to predict the subtypes of 28 cell lines for which 5-FU GI50 values had previously been determined.

As to `O=c1[nH]cc(F)c(=O)[nH]1` [5-FU, 5-fluorouracil], the “Hazard Ratio (95% CI), treatment” value in series [1] (197 patients in SG and AU cohorts, model ~subtype * treatment + stage, 5-FU vs surgery alone (=1)) is recorded as 1.437 (0.728, 2.835). In addition, the “Hazard Ratio (95% CI), subtype: treatment interaction, Invasive: 5-FU” value in series [1] (197 patients in SG and AU cohorts, model ~subtype * treatment + stage, reference Proliferative: 5-FU (=1)) is on record as 0.722 (0.287, 1.817). Also, the “HR (95% CI)” value in series [1] (Australian cohort, invasive subtype, 5-FU vs surgery alone (=1)) is 0.222 (0.059, 0.833); in series [1] (Australian cohort, proliferative subtype, 5-FU vs surgery alone (=1)), 1.938 (0.369, 10.170); in series [1] (Singapore cohort, invasive subtype, 5-FU vs surgery alone (=1)), 1.062 (0.469, 2.407); in series [1] (Singapore cohort, proliferative subtype, 5-FU vs surgery alone (=1)), 2.105 (0.879, 5.043). Besides, the “Deaths among 5-FU treated patients” value in series [1] (Singapore cohort, metabolic subtype) is reported as “no deaths”. The “Hazard ratio (95% CI)” value in series [1] (Univariate Cox regression, Singapore cohort, all subtypes, 5-FU vs surgery alone (=1), cancer-specific death) is recorded as 1.656 (0.983, 2.788). Further, the “5-FU effect on patient survival” value is given as “No effect” in series [1] (invasive subtype), “Beneficial” in series [1] (metabolic subtype) and “No effect” in series [1] (proliferative subtype). The “Survival, Kaplan-Meier, surgery plus 5-FU versus surgery alone” value in series [1] (metabolic-subtype patients) is recorded as “benefited; also recorded: better”; in series [1] (patients with invasive and proliferative subtypes, not adjusted for TNM stage), “worse”. Further, the “Disease-free survival, Kaplan-Meier, 5-FU treatment compared to surgery alone” value in series [1] (metabolic-subtype patients, log rank test p=0.025) was “benefited significantly”. For the same molecule, in series [1] (patients with invasive and proliferative subtypes), the “Benefit from 5-FU treatment by multivariate Cox regression” value is listed as “does not suggest any benefit”. Moreover, the “Sensitivity to 5-FU” value in series [2] is “preferential sensitivity”. Further, the “Sensitivity to 5-FU (GI50 values previously determined)” value in series [3] (28 cell lines, metabolic versus proliferative subtype cells, Wilcoxon rank sum test p=1.47×10-3) was “significantly more sensitive”. For the same molecule, the “Chemosensitivity in cell lines” value in series [3] (metabolic subtype cell lines) is 5-FU.
